From US20240208998A1, “COMPOUNDS FOR USE IN THE TREATMENT OF HYPERPROLIFERATIVE DISORDERS” (FUNDACIÓ PRIVADA INSTITUT D'INVESTIGACIÓ ONCOLÓGICA DE VALL …, priority 2021, published 2024) come the findings set out here.

SMILES strings stand for the structures. pEC50, pKd: −log10 of the molar value.

For one data set, the target named is human TET2 construct (Homo sapiens, UniProt Q6N021, A1837G/A1840G/D1704G/D1842G/DEL1471-1702/DEL1708-1833/E1841G/F1706G/N1843S/Q1834G/V1836G). The data set is described as follows: Determination of TET2 binding by Surface Plasmon Resonance. The note with it: SPR, Biacore T200, 25° C., steady state fit to single site interaction model. As to the method:
The human methylcytosine dioxygenase TET2 construct used (1129-2002 with residues 1471-1843 replaced by a 15-residue GS-linker) was expressed in a pET-28a(+)psumo vector with kanamycin resistance and an N-terminal His6 tag, and cloned in Rosetta D3 Escherichia coli competent cells. Transformed cells were cultured overnight in 10 mL of LB media supplied with kanamycin (50 μg/mL), then scaled to 1 L LB medium supplied with kanamycin (50 μg/mL) and grown at 37° C. Once the optical density (OD600) achieved 0.8, protein expression was induced with 0.4 mM isopropyl-β-thiogalactopyranoside (IPTG) overnight at 18° C. Cells were harvested by centrifugation (8,000 rpm, 4° C., 30 min) and the pellet obtained was resuspended in 15 mL of buffer A (50 mM Hepes, 150 mM NaCl, 30 mM imidazole, 2 mM β-mercaptoethanol (pH 8.0) supplemented with Pierce protease inhibitor cocktail (ThermoFisher Scientific)) and lysed by sonication (1 min 40 s: 10 cycles×10 s ON, 30 s OFF, A=35%, T=19° C.) followed by two consecutive centrifugations (8,000 rpm, 4° C., 30 min) to clarify the lysate.
The TET2 protein was purified using an AKTA Start system (GE Healthcare, Uppsala, Sweden) by two-step purification procedure: one His-affinity chromatography followed by a size exclusion chromatography. First, the protein fraction obtained during the lysis (supernatant) was applied to a 5 mL HisTrap HP column (GE Healthcare), washed with buffer A (50 mM Hepes, 150 mM NaCl, 30 mM imidazole, 2 mM […] (pH 8.0)) and the bound protein was eluted with buffer B (50 mM Hepes, 150 mM NaCl, 250 mM imidazole, 2 mM β-mercaptoethanol (pH 8.0)). The eluted protein-containing fractions were pooled and concentrated up to 4 mL for the last purification step: a size exclusion chromatography (HiPrep 16/60 Sephacryl S-100 HR) in 50 mM Hepes, 150 mM NaCl, 2 mM β-mercaptoethanol (pH 8.0). Finally, the mass and purity of the protein were verified by SDS-electrophoresis and mass spectrometry.
The binding of compounds of the examples was determined by Surface Plasmon Resonance (SPR) using a Biacore T200 SPR biosensor instrument (GE Healthcare, Uppsala, Sweden) at 25° C. The human TET2 construct was immobilized on a CM5 sensor chip using a standard covalent immobilization via amine coupling following the activation of the carboxymethyl dextran matrix of the sensor chip (injection of a solution containing 0.1 M N-hydroxysuccinimide and 0.4 M 1-ethyl-3-[3-(dimethylamino)propyl]carbodiimide hydrochloride at a flow rate of 15 μL/min for 7 min). The protein immobilization was achieved after the injection of 5 μg/mL TET2 in 10 mM sodium acetate (pH 4.0) at a flow rate of 5 μL/min. Unreacted activated groups of the dextran matrix were deactivated by injection of 1 M ethanolamine hydrochloride for 7 min at a flow rate of 15 μL/min. The corresponding matrix activation and protein immobilization were performed using as a running buffer a phosphate buffered saline solution (1.05× PBS: 10 mM phosphate, pH 7.4, 150 mM NaCl). The screened compounds were prepared in a 20 mM stock solution in DMSO and diluted with 1.05× PBS to achieve a final 5% (v/v) DMSO concentration. The running buffer of the interaction assays consisted of 1×PBS, 5% (v/v) DMSO. The flow rate used for the screening was 60 μL/min and the ligand association and dissociation times set were 60 s and 120 s, respectively.
For data analysis the software used was the Biacore T200 Evaluation software. Different corrections were applied. First, the nonspecific binding to the chip surface and the baseline drift were corrected subtracting the signals of a reference surface (where the immobilization procedure was carried out without proteins) to the signals obtained on the TET2 surface. Second, a series of solvent standards (solvent correction) were introduced to remove the differences derived from the DMSO. Finally, the background was corrected subtracting blank injections (blank subtraction) to the injected compound signals.

Another data set relates to HL60 cell line. Description: Antiproliferative activity on HL60 cell line (CellTiter-Glo). The data set is classed as cell-based. Particulars: Homo sapiens, HL-60; HL60, 72 h of treatment. Here is the method: The human leukaemic cell line HL60 was grown in suspension in RPMI 1640 medium containing 10% (v/v) FBS and 1% (v/v) P/S (Life Technologies). […] Leukaemia cells were suspended at a density of 2×10^5 cells/mL in complete RPMI 1640 medium and 25 μL were seeded in each well (5×10^3 final total cells/well). A 10 μM solution of the compounds of examples 1, 12 and 21, and a 25 μM solution of all other compounds were prepared in complete medium, and then serially diluted (1:2) (as specified in Table 3 below). A solution of complete medium with DMSO was used as a vehicle control.
Twenty-five microliters of each serially diluted compound solution were added to the corresponding wells of the plate (50 μL of final volume/well). After 48 h of treatment, 50 μL of fresh 2X serially diluted compound solution was added to their corresponding wells (100 μL of final volume/well). After twenty-four additional hours, an equal volume (100 μL) of CellTiter-Glo Reagent (Promega) was added to each well, plates were shaken during 2 min and incubated at rt for 10 min. Luminescence was recorded using a Spark multimode microplate reader and an integration time of 1 s per well.

In turn, `Cc1[nH]c2ccccc2c1-c1csc(NC(=O)Cc2cn3cc(F)ccc3n2)n1` [Example 8, 2-(6-fluoroimidazo[1,2-a]pyridin-2-yl)-N-[4-(2-methyl-1H-indol-3-yl)thiazol-2-yl]acetamide] yielded a melting point of 114 to 119 °C. The negative logarithm of the Kd (pKd) on human TET2 construct was 5.00. In the data set with HL60 cell line, this molecule had a pEC50 of 7.14.
`Cc1[nH]c2ccccc2c1-c1csc(NC(=O)Cc2sc3ccccc3c2C)n1` [Example 20, N-[4-(2-methyl-1H-indol-3-yl)thiazol-2-yl]-2-(3-methylbenzo[b]thiophen-2-yl)acetamide] came in with a melting point of 233 to 235 °C. In addition, the pKd on human TET2 construct was 5.30.
Turning to `Cc1[nH]c2ccccc2c1-c1csc(NC(=O)Cc2c[nH]cn2)n1` [Example 17, 2-(1H-imidazol-4-yl)-N-[4-(2-methyl-1H-indol-3-yl)thiazol-2-yl]acetamide], the melting point lay within 107 to 112 °C. The pKd on human TET2 construct was 4.96. In addition, in the data set on HL60 cell line, the pEC50 is 5.31.
For `O=C(Cc1cn2ccsc2n1)Nc1nc(-c2c[nH]c3cccc(Br)c23)cs1` [Example 22, N-[4-(4-bromo-1H-indol-3-yl)thiazol-2-yl]-2-(imidazo[2,1-b]thiazol-6-yl)acetamide] the same measures were 233 to 235 °C, 5.70 and 6.58.
On to `Cc1[nH]c2ccccc2c1-c1csc(NC(=O)CCc2c[nH]c3ccccc23)n1` [Example 14, 3-(1H-indol-3-yl)-N-[4-(2-methyl-1H-indol-3-yl)thiazol-2-yl]propanamide], for which the melting point was 133 to 135 °C. The negative logarithm of the Kd (pKd) on human TET2 construct was 4.85. This molecule also gave a pEC50 in the data set with HL60 cell line of 4.87.
For `Cc1[nH]c2ccccc2c1-c1csc(NC(=O)Cc2cc3ccccc3o2)n1` [Example 18, 2-(benzofuran-2-yl)-N-[4-(2-methyl-1H-indol-3-yl)thiazol-2-yl]acetamide] the same measures were 198 to 200 °C, 5.30 and 5.12.
Turning to `Cc1[nH]c2ccccc2c1-c1csc(NC(=O)Cc2c[nH]c3cc(Cl)ccc23)n1` [Example 16, 2-(6-chloro-1H-indol-3-yl)-N-[4-(2-methyl-1H-indol-3-yl)thiazol-2-yl]acetamide], the melting point is 175 to 177 °C. For the same molecule, the negative-log Kd (pKd) on human TET2 construct was 5.15.
`Cc1[nH]c2cc(F)ccc2c1-c1csc(NC(=O)Cc2cn3ccsc3n2)n1` [Example 26, N-[4-(6-fluoro-2-methyl-1H-indol-3-yl)thiazol-2-yl]-2-(imidazo[2,1-b]thiazol-6-yl)acetamide] returned a melting point of 157 to 158 °C. For the same molecule, at human TET2 construct, the negative-log Kd (pKd) was 4.80.
`Cc1[nH]c2ccccc2c1-c1csc(NC(=O)Cc2cn3c(C)csc3n2)n1` [Example 10, N-[4-(2-methyl-1H-indol-3-yl)thiazol-2-yl]-2-(3-methylimidazo[2,1-b]thiazol-6-yl)acetamide] returned a melting point of 145 to 148 °C. The molecule also gave a pKd at human TET2 construct of 4.96. In addition, in the data set with HL60 cell line, the negative logarithm of the EC50 (pEC50) is 5.48.
Regarding `Cc1[nH]c2ccccc2c1-c1csc(NC(=O)Cc2csc3nccn23)n1` [Example 2, 2-(imidazo[2,1-b]thiazol-3-yl)-N-[4-(2-methyl-1H-indol-3-yl)thiazol-2-yl]acetamide], the melting point was 160 to 163 °C. For the same molecule, the negative-log Kd (pKd) on human TET2 construct is 4.82. The molecule also showed a negative logarithm of the EC50 (pEC50) in the data set on HL60 cell line of 5.37.
With `Cc1ccc2[nH]cc(-c3csc(NC(=O)Cc4cn5ccsc5n4)n3)c2c1` [Example 24, 2-(imidazo[2,1-b]thiazol-6-yl)-N-[4-(5-methyl-1H-indol-3-yl)thiazol-2-yl]acetamide], the melting point was in the range of 160 to 162 °C. The molecule further showed a pKd on human TET2 construct of 6.00. This molecule also had a negative logarithm of the EC50 (pEC50) in the data set with HL60 cell line of 6.04.
The molecule `COc1ccc2[nH]c(C)c(-c3csc(NC(=O)Cc4cn5ccsc5n4)n3)c2c1` [Example 25, 2-(imidazo[2,1-b]thiazol-6-yl)-N-[4-(5-methoxy-2-methyl-1H-indol-3-yl)thiazol-2-yl]acetamide] registered a melting point of 143 to 144 °C. This molecule also gave a pKd at human TET2 construct of 4.89.
As to `Cc1[nH]c2ccccc2c1-c1coc(NC(=O)Cc2cn3ccsc3n2)n1` [Example 5, 2-(imidazo[2,1-b]thiazol-6-yl)-N-[4-(2-methyl-1H-indol-3-yl)oxazol-2-yl]acetamide], the melting point is 122 to 124 °C. The molecule further showed a pKd at human TET2 construct of 4.68. The pEC50 in the data set with HL60 cell line was 4.92.
With `Cc1cn2cc(CC(=O)Nc3nc(-c4c(C)[nH]c5ccccc45)cs3)nc2s1` [Example 9, N-[4-(2-methyl-1H-indol-3-yl)thiazol-2-yl]-2-(2-methylimidazo[2,1-b]thiazol-6-yl)acetamide], the melting point lay within 140 to 142 °C. The same molecule had a negative-log Kd (pKd) on human TET2 construct of 5.05.
On to `Cc1[nH]c2ccccc2c1-c1csc(NC(=O)Cc2nc3ccccc3o2)n1` [Example 3, 2-(benzo[d]oxazol-2-yl)-N-[4-(2-methyl-1H-indol-3-yl)thiazol-2-yl]acetamide], for which the melting point was in the range of 239 to 242 °C. Besides, the pKd on human TET2 construct is 4.80. For the same molecule, the pEC50 in the data set on HL60 cell line is 5.89.
Consider `COc1ccc2[nH]cc(CC(=O)Nc3nc(-c4c(C)[nH]c5ccccc45)cs3)c2c1` [Example 6, 2-(5-methoxy-1H-indol-3-yl)-N-[4-(2-methyl-1H-indol-3-yl)thiazol-2-yl]acetamide], for which the melting point is 127 to 129 °C. On human TET2 construct, this molecule had a negative logarithm of the Kd (pKd) of 5.30. The molecule also gave a pEC50 with HL60 cell line of 5.47.
Regarding `Cc1[nH]c2ccc(N)cc2c1-c1csc(NC(=O)Cc2cn3ccsc3n2)n1` [Example 28, N-[4-(5-amino-2-methyl-1H-indol-3-yl)thiazol-2-yl]-2-(imidazo[2,1-b]thiazol-6-yl)acetamide], the melting point is 125 to 126 °C. Also, on human TET2 construct, the negative-log Kd (pKd) was 4.17.
Molecule `Cc1[nH]c2ccc([N+](=O)[O-])cc2c1-c1csc(NC(=O)Cc2cn3ccsc3n2)n1` [Example 27, 2-(imidazo[2,1-b]thiazol-6-yl)-N-[4-(2-methyl-5-nitro-1H-indol-3-yl)thiazol-2-yl]acetamide] registered a melting point of 150 to 151 °C.
`O=C(Cc1cn2ccsc2n1)Nc1nc(-c2c[nH]c3ccc([N+](=O)[O-])cc23)cs1` [Example 23, 2-(imidazo[2,1-b]thiazol-6-yl)-N-[4-(5-nitro-1H-indol-3-yl)thiazol-2-yl]acetamide] gave a melting point of 232 to 234 °C. Moreover, the negative-log Kd (pKd) on human TET2 construct is 4.82.

As a reminder, the pKd is −log10 of the Kd, conventionally taken in molar units. A higher pKd goes with a small Kd. In general, pEC50 refers to the EC50 on a negative log10 scale, so that one unit is a factor of ten. Read a low pEC50 as a large EC50. In general, melting point refers to the temperature, or range, at which the solid turns liquid.
